# Source: US20110150817A1, “FRESHENING COMPOSITIONS COMPRISING MALODOR BINDING POLYMERS AND MALODOR CONTROL COMPONENTS” (priority 2009, published 2011)
# Read-outs that look alike come from different tables or passages of the source.
# How the values were obtained:
# [1] = Effect of volatile aldehydes on amine-based malodor (headspace GC/MS); details: 1 μL aldehyde in 10 mL headspace vial
# Experimental: A 1 μL sample of each volatile aldehyde listed in Table 6 and each Accord (A, B, and C) listed in Tables 1 to 3 is pipeted into individual 10 mL silanized headspace vials. […] Repeat 4 times for each sample (2 for butylamine analysis and 2 for butanethiol analysis).
# For amine analysis, the samples are injected immediately into the system after the malodor is introduced.
# [2] = Effect of volatile aldehydes on sulfur-based malodor (headspace GC/MS); details: 30 minutes at room temperature, 1 μL aldehyde in 10 mL headspace vial
# Experimental: A 1 μL sample of each volatile aldehyde listed in Table 6 and each Accord (A, B, and C) listed in Tables 1 to 3 is pipeted into individual 10 mL silanized headspace vials. […] Repeat 4 times for each sample (2 for butylamine analysis and 2 for butanethiol analysis). […]
# Vapor pressure at 25° C. = assay type: physicochemical
# Experimental: Suitable acid catalysts have a VP, as reported by Scifinder, in the range of about 0.001 torr to about 38 torr, measured at 25° C., alternatively about 0.001 torr to about 14 torr, alternatively from about 0.001 to about 1, alternatively from about 0.001 to about 0.020, alternatively about 0.005 to about 0.020, alternatively about 0.010 to about 0.020.
# [3] = acid catalysts, as reported by Scifinder; cited from earlier work
Molecule,At least 20% butylamine reduction at 40 seconds? [1],At least 20% butanethiol reduction at 30 minutes? [2],"VP (torr) @25° C. (Vapor pressure at 25° C.; Table 2, materials of Accord B) [torr]","VP (torr) @25° C. (Vapor pressure at 25° C.; Table 3, materials of Accord C) [torr]",VP (torr) @25° C. [3] [torr],"VP (torr) @25° C. (Vapor pressure at 25° C.; Table 1, materials of Accord A) [torr]"
"CC(C)=CCCC(C)CCOCC=O (centres unmarked) [Citronelyl Oxyacetaldehyde, Citronellyl oxyacetaldehyde]",No,No,–,–,–,–
"CCc1ccc(CC(C)(C)C=O)cc1 [Floralozone, para-ethyl-alpha,alpha-dimethyl Hydrocinnamaldehyde]",No,No,0.005,0.005,–,–
CCOc1ccccc1C=O [2-ethoxy benzylaldehyde],Yes,Yes,–,–,–,–
CC1(C)C2CC=C(CCC=O)C1C2 (centres unmarked) [Pino acetaldehyde],Yes,Yes,–,–,–,–
CCCCCCCC(=O)O [Caprylic acid],–,–,–,–,0.0222,–
C/C=C(\C)C(=O)O [Tiglic acid],–,–,–,–,0.152,–
"CC(C)=CCCC(C)CCCC(C)C=O (centres unmarked) [Adoxal, 2,6,10-Trimethyl-9-undecenal]",Yes,No,0.007,0.007,–,–
"CC(C=O)Cc1ccc(C(C)(C)C)cc1 (stereo not drawn) [P.T. Bucinal, 4-tert-butyl-alpha-methyl-hydrocinnamaldehyde]",Yes,No,–,–,–,–
O=C(O)CCC(=O)O [Succinic acid],–,–,–,–,0.0165,–
CCC(=O)OC1CC2CC1C1CC=CC21 (centres unmarked) [Frutene],–,–,–,0.020,–,–
O=C(O)c1ccccc1 [Benzoic acid],–,–,–,–,0.014,–
C=CC(C)(O)CCC=C(C)C (centres unmarked) [Linalool],–,–,–,0.050,–,–
Cc1ccc(C(=O)O)s1 [5-Methyl thiophene carboxylic acid],–,–,–,–,0.019,–
"COC1CC2CC1C1CC(C=O)CC21 (centres unmarked) [Scentenal, octahydro-5-methoxy-4,7-Methano-1H-indene-2-carboxaldehyde]",–,–,0.010,0.010,–,0.010
"CC(C=O)Cc1ccc2c(c1)OCO2 (stereo not drawn) [Helional, alpha-methyl-3,4-(methylenedioxy)-hydrocinnamaldehyde]",Yes,No,–,0.0005,–,–
"CC(C)=CCCC(C)C=O (centres unmarked) [Melonal, 2,6-Dimethyl-5-Heptenal]",Yes,No,0.670,0.670,–,–
O=Cc1cccs1 [Thiophene Carboxaldehyde],Yes,No,–,–,–,–
"COc1cc(OC)c(C=O)c(OC)c1 [2,4,6-Trimethoxy-benzylaldehyde]",No,No,–,–,–,–
CCCCCCCCCC=O [Decyl aldehyde],Yes,No,–,–,–,–
CC(=O)O [Acetic Acid],–,–,–,–,13.9,–
"C=CCCCCCCCCC=O [Intreleven Aldehyde, undec-10-en-1-al]",–,–,0.060,0.060,–,0.060
CC(C)(C)c1ccc(C=O)cc1 [4-tertbutyl benzylaldehyde],Yes,No,–,–,–,–
CC(C)CC=C(C=O)C(C)C [2-isopropyl-5-methyl-2-hexenal],Yes,Yes,–,–,–,–
COc1ccccc1C=O [o-anisaldehyde],Yes,Yes,0.032,0.320,–,0.032
Cc1ccc(C=O)s1 [5-methyl-thiophene-carboxaldehyde],No,Yes,–,–,–,–
"CC(C)(C)c1ccc(CCC=O)cc1 [Bourgeonal, 4-t-butylbenzenepropionaldehyde]",No,Yes,–,0.004,–,–

Molecule,At least 20% butylamine reduction at 40 seconds? [1],At least 20% butanethiol reduction at 30 minutes? [2],"VP (torr) @25° C. (Vapor pressure at 25° C.; Table 2, materials of Accord B) [torr]","VP (torr) @25° C. (Vapor pressure at 25° C.; Table 3, materials of Accord C) [torr]",VP (torr) @25° C. [3] [torr],"VP (torr) @25° C. (Vapor pressure at 25° C.; Table 1, materials of Accord A) [torr]"
"3,4-Trimethoxy-benzylaldehyde",No,No,–,–,–,–
"CC(C)c1cccc(C(C)CC=O)c1 (centres unmarked) [Florhydral, 3-(3-Isopropyl-phenyl)-butyraldehyde]",Yes,Yes,0.008,0.008,–,0.008
"CCCCCC(C=O)=Cc1ccccc1 [Amyl cinnamic aldehyde, alpha-Amylcinnamic aldehyde]",No,No,–,–,–,–
CCCCCCCCCCCC=O [Lauric aldehyde],Yes,No,–,–,–,–
"COc1cc(OC)c(OC)cc1C=O [2,4,5 Trimethoxy Benzaldehyde]",No,No,–,–,–,–
"O=CC=Cc1ccccc1 [Cinnamic aldehyde, 3-phenyl-2-propenal]",Yes,Yes,–,–,–,–
CC(C)(C)C(=O)O [Trimethyl Acetic Acid],–,–,–,–,0.907,–
"CCCCCCCCCC(C)C=O (centres unmarked) [Methyl Nonyl Acetaldehyde, 2-methyl-1-undecanal]",No,No,0.030,0.030,–,–
Cc1cc(C)cc(C(=O)O)c1 [Mesitylenic acid],–,–,–,–,0.00211,–
CC(=O)OC1CC2CC1C1CC=CC21 (centres unmarked) [Flor Acetate],–,–,–,0.060,–,–
"CC(CC=O)CCCC(C)(C)O (centres unmarked) [Hydroxycitronellal, 7-hydroxy-3,7-dimethyl octan-1-al]",No,No,–,–,–,–
CC(C=O)=Cc1ccco1 [2-methyl-3-(2-furyl)-propenal],No,No,–,–,–,–
"CC(C=O)Cc1ccc(C(C)C)cc1 (stereo not drawn) [Cymal, Alpha-methyl-p-isopropyl phenyl propyl aldehyde]",Yes,No,0.007,0.007,–,0.007
"COc1ccc(C=O)cc1 [p-anisaldehyde, p-methoxybenzene aldehyde]",Yes,No,–,–,–,–
CCCCCCCCCCC=O [Undecyl aldehyde],Yes,No,–,–,–,–
"CC1=CC(C)C(C=O)CC1 (centres unmarked) [Ligustral, 2,4-dimethyl-3-cyclohexene-1-carboxaldehyde]",Yes,No,–,–,–,–
"COc1cc(C=O)cc(OC)c1OC [3,4,5 Trimethoxy Benzaldehyde]",No,No,–,–,–,–
"CC(C)(O)CCCC1=CCC(C=O)CC1 (centres unmarked) [Lyral, 4-(4-hydroxy-4-methylpentyl)-3-cyclohexene-1-carboxaldehyde]",Yes,No,–,–,–,–
O=Cc1ccccc1 [Benzylaldehyde],Yes,No,–,–,–,–
Oc1ccccc1 [Phenol],–,–,–,–,0.610,–
C=CC(C)CCC=C(C)CCC=O (centres unmarked) [Floral Super],Yes,Yes,0.030,0.030,–,0.030
CCCCC/C=C/CCC=O [Trans-4-decenal],Yes,Yes,–,–,–,–
"CCCC/C=C/C=C/C=O [Trans Trans 2,4-Nonadienal]",Yes,No,–,–,–,–
Cc1ccc(C=O)o1 [5-methyl furfural],Yes,Yes,–,–,–,–
O=CO [Formic Acid],–,–,–,–,36.5,–
